Numbers after ± are expanded uncertainties.
Test: mn = molality of the nth substance listed, in mol/kg
Conditions: Liquid, Vibrating tube method

[Br-].[Li+] [lithium bromide] + CCO
Conditions | mass density [kg/m3]
273.09 K, 4590 kPa, m1 = 2.272 | 943.92 ± 1.9
273.13 K, 30024 kPa, m1 = 0.2335 | 841.53 ± 1.7
273.14 K, 5012 kPa, m1 = 0.2335 | 824.8 ± 1.7
273.14 K, 29954 kPa, m1 = 2.833 | 990.17 ± 2
273.14 K, 49926 kPa, m1 = 2.833 | 1001.06 ± 2
273.14 K, 80014 kPa, m1 = 0.2335 | 868.58 ± 1.8
273.15 K, 1023 kPa, m1 = 0.2335 | 821.76 ± 1.6
273.15 K, 1024 kPa, m1 = 0.9499 | 866.06 ± 1.7
273.15 K, 1024 kPa, m1 = 2.833 | 971.83 ± 1.9
273.15 K, 1537 kPa, m1 = 3.368 | 1000.06 ± 2
273.15 K, 2048 kPa, m1 = 1.462 | 896.66 ± 1.8
273.15 K, 5002 kPa, m1 = 2.833 | 974.56 ± 1.9
273.15 K, 5021 kPa, m1 = 0.9499 | 868.77 ± 1.7
273.15 K, 10002 kPa, m1 = 0.2335 | 828.53 ± 1.7
273.15 K, 10002 kPa, m1 = 0.9499 | 872.07 ± 1.8
273.15 K, 10177 kPa, m1 = 2.272 | 947.5 ± 1.9
273.15 K, 19956 kPa, m1 = 2.833 | 984.22 ± 2
273.15 K, 20031 kPa, m1 = 0.2335 | 835.19 ± 1.7
273.15 K, 20031 kPa, m1 = 0.9499 | 878.51 ± 1.8
273.15 K, 30045 kPa, m1 = 0.9499 | 884.65 ± 1.8
273.15 K, 39945 kPa, m1 = 0.2335 | 847.51 ± 1.7
273.15 K, 39974 kPa, m1 = 2.833 | 995.79 ± 2
273.15 K, 40015 kPa, m1 = 0.9499 | 890.49 ± 1.8
273.15 K, 49923 kPa, m1 = 0.2335 | 853.22 ± 1.7
273.15 K, 50027 kPa, m1 = 0.9499 | 896.06 ± 1.8
273.15 K, 59570 kPa, m1 = 2.272 | 975.51 ± 2
273.15 K, 60021 kPa, m1 = 2.833 | 1006.15 ± 2
273.15 K, 60029 kPa, m1 = 0.9499 | 901.35 ± 1.8
273.15 K, 69980 kPa, m1 = 2.272 | 980.49 ± 2
273.15 K, 70002 kPa, m1 = 0.9499 | 906.34 ± 1.8
273.15 K, 70003 kPa, m1 = 0.2335 | 863.78 ± 1.8
273.15 K, 70035 kPa, m1 = 2.833 | 1010.98 ± 2
273.15 K, 79857 kPa, m1 = 2.272 | 985.04 ± 2
273.15 K, 79954 kPa, m1 = 0.9499 | 911.03 ± 1.9
273.15 K, 89925 kPa, m1 = 2.272 | 989.55 ± 2
273.15 K, 89935 kPa, m1 = 0.9499 | 915.46 ± 1.9
273.15 K, 89956 kPa, m1 = 2.833 | 1020.12 ± 2.1
273.15 K, 90023 kPa, m1 = 0.2335 | 873.07 ± 1.8
273.15 K, 99945 kPa, m1 = 0.2335 | 877.21 ± 1.9
273.15 K, 99986 kPa, m1 = 0.9499 | 919.63 ± 1.9
273.15 K, 99986 kPa, m1 = 2.833 | 1024.57 ± 2.1
273.16 K, 5195 kPa, m1 = 1.462 | 898.75 ± 1.8
273.16 K, 10032 kPa, m1 = 2.833 | 977.92 ± 2
273.16 K, 20027 kPa, m1 = 3.368 | 1011.76 ± 2
273.16 K, 29980 kPa, m1 = 3.368 | 1017.69 ± 2
273.16 K, 39977 kPa, m1 = 3.368 | 1023.39 ± 2
273.16 K, 49994 kPa, m1 = 0.5972 | 875.26 ± 1.8
273.16 K, 59884 kPa, m1 = 0.5972 | 880.54 ± 1.8
273.16 K, 59985 kPa, m1 = 0.2335 | 858.67 ± 1.8
273.16 K, 69990 kPa, m1 = 0.5972 | 885.63 ± 1.8
273.16 K, 80061 kPa, m1 = 2.833 | 1015.64 ± 2
273.16 K, 100090 kPa, m1 = 2.272 | 994.02 ± 2
273.17 K, 1948 kPa, m1 = 2.272 | 941.72 ± 1.9
273.17 K, 9742 kPa, m1 = 1.462 | 901.73 ± 1.8
273.17 K, 10114 kPa, m1 = 3.368 | 1005.6 ± 2
273.17 K, 19964 kPa, m1 = 0.5972 | 857.46 ± 1.7
273.17 K, 20349 kPa, m1 = 2.272 | 953.97 ± 1.9
273.17 K, 29947 kPa, m1 = 2.272 | 959.72 ± 1.9
273.17 K, 29993 kPa, m1 = 0.5972 | 863.7 ± 1.7
273.17 K, 39918 kPa, m1 = 0.5972 | 869.58 ± 1.8
273.17 K, 49964 kPa, m1 = 2.272 | 970.63 ± 1.9
273.17 K, 49974 kPa, m1 = 3.368 | 1028.82 ± 2.1
273.17 K, 80091 kPa, m1 = 0.5972 | 890.43 ± 1.8
273.17 K, 89924 kPa, m1 = 3.368 | 1047.9 ± 2.1
273.17 K, 89993 kPa, m1 = 0.5972 | 894.84 ± 1.9
273.17 K, 99951 kPa, m1 = 3.368 | 1052.03 ± 2.1
273.18 K, 1306 kPa, m1 = 0.5972 | 845.06 ± 1.7
273.18 K, 4686 kPa, m1 = 0.5972 | 847.38 ± 1.7
273.18 K, 4965 kPa, m1 = 3.368 | 1002.3 ± 2
273.18 K, 9917 kPa, m1 = 0.5972 | 850.91 ± 1.7
273.18 K, 20115 kPa, m1 = 1.462 | 908.3 ± 1.8
273.18 K, 29966 kPa, m1 = 1.462 | 914.27 ± 1.8
273.18 K, 49922 kPa, m1 = 1.462 | 925.55 ± 1.9
273.18 K, 60091 kPa, m1 = 1.462 | 930.87 ± 1.9
273.18 K, 60277 kPa, m1 = 3.368 | 1034.14 ± 2.1
273.18 K, 69993 kPa, m1 = 1.462 | 935.78 ± 1.9
273.18 K, 69994 kPa, m1 = 3.368 | 1038.9 ± 2.1
273.18 K, 79725 kPa, m1 = 3.368 | 1043.43 ± 2.1
273.18 K, 80129 kPa, m1 = 1.462 | 940.52 ± 1.9
273.18 K, 89963 kPa, m1 = 1.462 | 944.86 ± 1.9
273.18 K, 100098 kPa, m1 = 0.5972 | 899.04 ± 1.9
273.19 K, 39973 kPa, m1 = 1.462 | 920.07 ± 1.9
273.19 K, 40359 kPa, m1 = 2.272 | 965.49 ± 1.9
273.2 K, 99708 kPa, m1 = 1.462 | 948.89 ± 1.9
293.12 K, 9790 kPa, m1 = 1.462 | 886.75 ± 1.8
293.13 K, 1999 kPa, m1 = 1.462 | 881.23 ± 1.8
293.13 K, 5005 kPa, m1 = 1.462 | 883.38 ± 1.8
293.13 K, 19962 kPa, m1 = 1.462 | 893.68 ± 1.8
293.13 K, 29997 kPa, m1 = 1.462 | 900.21 ± 1.8
293.13 K, 30014 kPa, m1 = 0.2335 | 827.08 ± 1.7
293.13 K, 40468 kPa, m1 = 1.462 | 906.69 ± 1.8
293.13 K, 49901 kPa, m1 = 1.462 | 912.25 ± 1.8
293.13 K, 59950 kPa, m1 = 3.368 | 1019.25 ± 2
293.14 K, 5014 kPa, m1 = 0.2335 | 809.13 ± 1.6
293.14 K, 10097 kPa, m1 = 3.368 | 989.9 ± 2
293.14 K, 19953 kPa, m1 = 2.833 | 969.14 ± 1.9
293.14 K, 49968 kPa, m1 = 2.833 | 986.92 ± 2
293.14 K, 49985 kPa, m1 = 0.2335 | 839.79 ± 1.7
293.14 K, 59817 kPa, m1 = 0.5972 | 867.48 ± 1.8
293.14 K, 60137 kPa, m1 = 1.462 | 917.97 ± 1.9
293.14 K, 69946 kPa, m1 = 3.368 | 1024.25 ± 2.1
293.14 K, 69979 kPa, m1 = 0.5972 | 872.97 ± 1.8
293.14 K, 69979 kPa, m1 = 1.462 | 923.18 ± 1.9
293.14 K, 79675 kPa, m1 = 0.5972 | 877.88 ± 1.8
293.15 K, 1003 kPa, m1 = 0.2335 | 805.64 ± 1.6

Source: the NIST ThermoML archive (doi:10.1021/je1003065)
